Starred links: 1 amine or outer side, 2 acyl side, 3 side chain; linkers in the order of their positions; H or OH if unused. Positions of bridges follow the written chain, without caps; N, C: chain ends. Non-standard residues stand in square brackets, D forms with d. Residues, ends and D or L forms follow the SMILES beside them. Groups on a side chain read outwards from the residue. *: point of attachment. Me3N+(CH2)2O(CH2)2O(CH2)2CO = C[N+](C)(C)CCOCCOCCC(=O)*; Trp(7-Me) = Cc1cccc2c(C[C@H](N)C(=O)O)c[nH]c12; 3Oxa8azabicyclo(3.2.1)octane = C1CC2COCC1N2*; 3Pal(5-Me) = Cc1cncc(C[C@H](N)C(=O)O)c1; γGlu = O=C(O)[C@H](CCC(=O)[*:2])N[*:1]; 2Nal = N[C@@H](Cc1ccc2ccccc2c1)C(=O)O; AEF = NCCOc1ccc(C[C@H](N)C(=O)O)cc1; X19 = C[N+](C)(C)C[C@@H](CC(=O)O)N*; dNMeY = CN[C@H](Cc1ccc(O)cc1)C(=O)O; PEG6 = NCCOCCOCCOCCOCCOCCOCCC(=O)O; 3Pal = N[C@@H](Cc1cccnc1)C(=O)O; Myristoyl = CCCCCCCCCCCCCC(=O)*; Lys(Me) = CNCCCC[C@H](N)C(=O)O; X53 = C[N+]1(CCOCCOCC*)CCOCC1; NMeK = CN[C@@H](CCCCN)C(=O)O; Pen = CC(C)(S)[C@H](N)C(=O)O; Suc = O=C(CCC(=O)[*:2])[*:1]; αMeK = C[C@](N)(CCCCN)C(=O)O; Thp = NC1(C(=O)O)CCOCC1; X3 = C[N+](C)(C)CCCCC*; AEEA = NCCOCCOCC(=O)O; Me2NCH2CH2 = CN(C)CC*; Sar = CNCC(=O)O

The nature of this series: Exposed Polar Surface Area (EPSA). The note with it: SFC on Chirex 3014 column; sample 1 mM DMSO stock; read-out: EPSA. In kind it is physicochemical. In outline:
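Retention-based polarity: supercritical CO2 with 20 mM ammonium formate in MeOH (5–60%, 20%/min), Chirex 3014 column, 35 °C. Calibrated against 8 standards to give EPSA (Å^2); each sample measured twice.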
As to `CC(=O)NCCCC[C@@H]1NC(=O)[C@H](Cc2c[nH]c3c(C)cccc23)NC(=O)[C@H]([C@@H](C)O)NC(=O)[C@H](CC(N)=O)NC(=O)[C@@H](NC(C)=O)C(C)(C)SSC(C)(C)[C@@H](C(=O)N[C@@H](Cc2ccc(OCCN)cc2)C(=O)N[C@@H](Cc2ccc3ccccc3c2)C(=O)NC2(C(=O)N[C@@H](CCC(=O)O)C(=O)N[C@@H](CC(N)=O)C(=O)N[C@@H](Cc3cccnc3)C(=O)N(C)CC(=O)N3C4CCC3COC4)CCOCC2)NC1=O` [compound 115] (Ac-[Pen]NT[Trp(7-Me)]K(Ac)[Pen][AEF][2Nal][Thp]EN[3Pal][Sar]-{3Oxa8azabicyclo(3.2.1)octane}; disulfide 1-6), the EPSA stood at 171 A^2. As to `CC(=O)NCCCC[C@@H]1NC(=O)[C@H](Cc2c[nH]c3c(C)cccc23)NC(=O)[C@H]([C@@H](C)O)NC(=O)[C@H](CC(N)=O)NC(=O)[C@@H](NC(C)=O)C(C)(C)SSC(C)(C)[C@@H](C(=O)N[C@@H](Cc2ccc(OCCN)cc2)C(=O)N[C@@H](Cc2ccc3ccccc3c2)C(=O)NC2(C(=O)N[C@@H](CCCCNC(=O)CCC(=O)N[C@H](CC(=O)O)C[N+](C)(C)C)C(=O)N[C@@H](CC(N)=O)C(=O)N[C@@H](Cc3cccnc3)C(=O)N(C)CC(N)=O)CCOCC2)NC1=O` [compound 109] (Ac-[Pen]NT[Trp(7-Me)]K(Ac)[Pen][AEF][2Nal][Thp]K([Suc-X19])N[3Pal][Sar]-NH2; disulfide 1-6), the EPSA was 171 A^2. Consider `CC(=O)NCCCC[C@@H]1NC(=O)[C@H](Cc2c[nH]c3c(C)cccc23)NC(=O)[C@H]([C@@H](C)O)NC(=O)[C@H](CC(N)=O)NC(=O)[C@@H](NC(=O)[C@@H](CCCNC(=N)N)NC(=O)CCOCCOCCOCCOCCOCCOCCNC(C)=O)C(C)(C)SSC(C)(C)[C@@H](C(=O)N[C@@H](Cc2ccc(OCCN)cc2)C(=O)N[C@@H](Cc2ccc3ccccc3c2)C(=O)NC2(C(=O)N[C@@H](CCC(=O)O)C(=O)N[C@@H](CC(N)=O)C(=O)N[C@@H](Cc3cccnc3)C(=O)N(C)CC(N)=O)CCOCC2)NC1=O` [compound 37] (Ac-[PEG6][dR][Pen]NT[Trp(7-Me)]K(Ac)[Pen][AEF][2Nal][Thp]EN[3Pal][Sar]-NH2; disulfide 3-8 (inferred)), for which the EPSA stood at 174 A^2. For `CC(=O)NCCCC[C@@H]1NC(=O)[C@H](Cc2c[nH]c3c(C)cccc23)NC(=O)[C@H]([C@@H](C)O)NC(=O)[C@H](CC(N)=O)NC(=O)[C@@H](NC(C)=O)C(C)(C)SSC(C)(C)[C@@H](C(=O)N[C@@H](Cc2ccc(OCCN)cc2)C(=O)N[C@@H](Cc2ccc3ccccc3c2)C(=O)N[C@@](C)(CCCCN)C(=O)N[C@@H](CCCCNC(C)=O)C(=O)N[C@@H](CC(N)=O)C(=O)N[C@@H](C(=O)N(C)[C@H](Cc2ccc(O)cc2)C(N)=O)[C@H](C)O)NC1=O` [compound 15, MeCO-Pen(3)-N-T-7MeW-K(Ac)-Pen(3)-AEF-2Nal-aMeK-K(Ac)-N-t-NMeDTyr-CONH2] (Ac-[Pen]NT[Trp(7-Me)]K(Ac)[Pen][AEF][2Nal][αMeK]K(Ac)N[dT][dNMeY]-NH2; disulfide 1-6 (inferred)), the EPSA was 168 A^2. The figure for `CC(=O)N(C)CCCC[C@@H]1NC(=O)[C@H](Cc2c[nH]c3c(C)cccc23)NC(=O)[C@H]([C@@H](C)O)NC(=O)[C@H](CC(=O)N(C)C)NC(=O)[C@@H](NC(=O)CCOCCOCC[N+](C)(C)C)C(C)(C)SSC(C)(C)[C@@H](C(=O)N[C@@H](Cc2ccc(OCCCCC[N+](C)(C)C)cc2)C(=O)N[C@@H](Cc2ccc3ccccc3c2)C(=O)NC2(C(=O)N[C@@H](C)C(=O)N[C@@H](CC(N)=O)C(=O)N[C@@H](Cc3cccnc3)C(=O)N(C)CC(=O)N(C)C)CCOCC2)NC1=O` [compound 316, cPEG3aCO-Pen(3)-N(N(Me)2)-T-7MeW-K(NMeAc)-Pen(3)-TMAPF-2Nal-THP-A-N-3Pya-Sar-CON(Me)2] ({Me3N+(CH2)2O(CH2)2O(CH2)2CO}-[Pen]D(NMe2)T[Trp(7-Me)][Lys(Me)](Ac)[Pen]Y(X3)[2Nal][Thp]AN[3Pal][Sar]-NMe2; disulfide 1-6) is 154 A^2; for `CCCCCCCCCCCCCC(=O)N[C@@H](CCC(=O)NCCOCCOCC(=O)NCCOCCOCC(=O)NCCCC[C@@H](NC(=O)CCOCCOCC[N+](C)(C)C)C(=O)N[C@@H]1C(=O)N[C@@H](CC(=O)N(C)C)C(=O)N[C@@H]([C@@H](C)O)C(=O)N[C@@H](Cc2c[nH]c3c(C)cccc23)C(=O)N[C@@H](CCCCNC(C)=O)C(=O)N[C@H](C(=O)N[C@@H](Cc2ccc(OCCCCC[N+](C)(C)C)cc2)C(=O)N[C@@H](Cc2ccc3ccccc3c2)C(=O)NC2(C(=O)N[C@@H](CCCCN(C)C(C)=O)C(=O)N[C@@H](CC(N)=O)C(=O)N[C@@H](Cc3cccnc3)C(=O)N(C)[C@@H](CCCCNC(=O)COCCOCCNC(=O)COCCOCCNC(=O)CC[C@H](NC(=O)CCCCCCCCCCCCC)C(=O)O)C(N)=O)CCOCC2)C(C)(C)SSC1(C)C)C(=O)O` [compound 347, cPEG3aCO-k(PEG2PEG2gEC14)-Pen(3)-N(N(Me)2)-T-7MeW-K(Ac)-Pen(3)-TMAPF-2Nal-THP-K(NMeac)-N-3Pya-NMeK(PEG2PEG2gEC14)-CONH2] ({Me3N+(CH2)2O(CH2)2O(CH2)2CO}-[dK]([AEEA-AEEA-γGlu-Myristoyl])[Pen]D(NMe2)T[Trp(7-Me)]K(Ac)[Pen]Y(X3)[2Nal][Thp][Lys(Me)](Ac)N[3Pal][NMeK]([AEEA-AEEA-γGlu-Myristoyl])-NH2; disulfide 2-7) it is 187 A^2; for `CCCCCCCCCCCCCC(=O)N[C@@H](CCC(=O)NCCOCCOCC(=O)NCCOCCOCC(=O)NCCCC[C@H](NC(=O)C1(NC(=O)[C@H](Cc2ccc3ccccc3c2)NC(=O)[C@H](Cc2ccc(OCCCCC[N+](C)(C)C)cc2)NC(=O)[C@H]2NC(=O)[C@H](CCCCN(C)C(C)=O)NC(=O)[C@H](Cc3c[nH]c4c(C)cccc34)NC(=O)[C@H]([C@@H](C)O)NC(=O)[C@H](CC(=O)N(C)C)NC(=O)[C@@H](NC(=O)[C@@H](CCCCNC(=O)COCCOCCNC(=O)COCCOCCNC(=O)CC[C@H](NC(=O)CCCCCCCCCCCCC)C(=O)O)NC(=O)CCOCCOCC[N+](C)(C)C)C(C)(C)SSC2(C)C)CCOCC1)C(=O)N[C@@H](CC(N)=O)C(=O)N[C@@H](Cc1cccnc1)C(=O)N(C)CC(=O)N(C)C)C(=O)O` [compound 395, cPEG3aCO-k(PEG2PEG2gEC14)-Pen(3)-N(N(Me)2)-T-7MeW-K(NMeAc)-Pen(3)-TMAPF-2Nal-THP-K(PEG2PEG2gEC14)-N-3Pya-Sar-CON(Me)2] ({Me3N+(CH2)2O(CH2)2O(CH2)2CO}-[dK]([AEEA-AEEA-γGlu-Myristoyl])[Pen]D(NMe2)T[Trp(7-Me)][Lys(Me)](Ac)[Pen]Y(X3)[2Nal][Thp]K([AEEA-AEEA-γGlu-Myristoyl])N[3Pal][Sar]-NMe2; disulfide 2-7) it is 189 A^2. The figure for `CC(=O)NCCCC[C@@H]1NC(=O)[C@H](Cc2c[nH]c3c(C)cccc23)NC(=O)[C@H]([C@@H](C)O)NC(=O)[C@H](CC(N)=O)NC(=O)[C@@H](NC(C)=O)C(C)(C)SSC(C)(C)[C@@H](C(=O)N[C@@H](Cc2ccc(OCCN)cc2)C(=O)N[C@@H](Cc2ccc3ccccc3c2)C(=O)N[C@@](C)(CCCCN)C(=O)N[C@@H](CCCCNC(C)=O)C(=O)N[C@@H](CC(N)=O)C(=O)N[C@@H](CC(N)=O)C(=O)N(C)[C@H](Cc2ccc(O)cc2)C(N)=O)NC1=O` [compound 13, MeCO-Pen(3)-N-T-7MeW-K(Ac)-Pen(3)-AEF-2Nal-aMeK-K(Ac)-N-N-NMeDTyr-CONH2] (Ac-[Pen]NT[Trp(7-Me)]K(Ac)[Pen][AEF][2Nal][αMeK]K(Ac)NN[dNMeY]-NH2; disulfide 1-6) is 174 A^2; for `CC(=O)NCCCC[C@@H]1NC(=O)[C@H](Cc2c[nH]c3c(C)cccc23)NC(=O)[C@H]([C@@H](C)O)NC(=O)[C@H](CC(N)=O)NC(=O)[C@@H](NC(C)=O)C(C)(C)SSC(C)(C)[C@@H](C(=O)N[C@@H](Cc2ccc(OCCN(C)C)cc2)C(=O)N[C@@H](Cc2ccc3ccccc3c2)C(=O)N[C@@](C)(CCCCN)C(=O)N[C@@H](CCCCNC(C)=O)C(=O)N[C@@H](CC(N)=O)C(=O)NC2(C(N)=O)CCOCC2)NC1=O` [compound 31] (Ac-[Pen]NT[Trp(7-Me)]K(Ac)[Pen]Y(Me2NCH2CH2)[2Nal][αMeK]K(Ac)N[Thp]-NH2; disulfide 1-6) it is 158 A^2. Turning to `CC(=O)NCCCC[C@@H]1NC(=O)[C@H](Cc2c[nH]c3c(C)cccc23)NC(=O)[C@H]([C@@H](C)O)NC(=O)[C@H](CC(N)=O)NC(=O)[C@@H](NC(=O)[C@@H](CCCNC(=N)N)NC(=O)CCOCCOCC[N+](C)(C)C)C(C)(C)SSC(C)(C)[C@@H](C(=O)N[C@@H](Cc2ccc(OCCCCC[N+](C)(C)C)cc2)C(=O)N[C@@H](Cc2ccc3ccccc3c2)C(=O)NC2(C(=O)N[C@@H](CCC(=O)O)C(=O)N[C@@H](CC(N)=O)C(=O)N[C@@H](Cc3cncc(C)c3)C(=O)N(C)CC(N)=O)CCOCC2)NC1=O` [compound 542, cPEG3aCO-r-Pen(3)-N-T-7MeW-K(Ac)-Pen(3)-TMAPF-2Nal-THP-E-N-5MePyridinAla-Sar-CONH2] ({Me3N+(CH2)2O(CH2)2O(CH2)2CO}-[dR][Pen]NT[Trp(7-Me)]K(Ac)[Pen]Y(X3)[2Nal][Thp]EN[3Pal(5-Me)][Sar]-NH2; disulfide 2-7), the EPSA amounted to 180 A^2. The figure for `CC(=O)N(C)CCCC[C@@H]1NC(=O)[C@H](Cc2c[nH]c3c(C)cccc23)NC(=O)[C@H]([C@@H](C)O)NC(=O)[C@H](CC(=O)N(C)C)NC(=O)[C@@H](NC(=O)CCOCCOCC[N+](C)(C)C)C(C)(C)SSC(C)(C)[C@@H](C(=O)N[C@@H](Cc2ccc(OCCOCCOCC[N+]3(C)CCOCC3)cc2)C(=O)N[C@@H](Cc2ccc3ccccc3c2)C(=O)NC2(C(=O)N[C@@H](CCCCN(C)C(C)=O)C(=O)N[C@@H](CC(N)=O)C(=O)N[C@@H](Cc3cccnc3)C(=O)N(C)CC(=O)N(C)C)CCOCC2)NC1=O` [compound 223, cPEG3aCO-Pen(3)-N(N(Me)2)-T-7MeW-K(NMeAc)-Pen(3)-MMPEG3F-2Nal-THP-K(NMeAc)-N-3Pya-Sar-CON(Me)2] ({Me3N+(CH2)2O(CH2)2O(CH2)2CO}-[Pen]D(NMe2)T[Trp(7-Me)][Lys(Me)](Ac)[Pen]Y(X53)[2Nal][Thp][Lys(Me)](Ac)N[3Pal][Sar]-NMe2; disulfide 1-6) is 141 A^2.

The record behind these values is patent US20260022143A1, “Cyclic Peptide Inhibitors of IL-23” (JANSSEN PHARMACEUTICA NV, priority 2022, published 2026).
